We go through 65 molecules from ChEMBL document CHEMBL1146889, “Homo-cysteinyl peptide inhibitors of the L1 metallo-beta-lactamase, and SAR as determined by combinatorial library synthesis” (Bioorg Med Chem Lett, 2006).

One test deals with Beta-lactamase L1 (Stenotrophomonas maltophilia, UniProt P52700). Briefly: Inhibition of Stenotrophomonas maltophilia L1 metallo beta lactamase.
The target of test [1] is Beta-lactamase L1 (Stenotrophomonas maltophilia) (UniProt P52700). Put plainly: Inhibition of Stenotrophomonas maltophilia L1 metallo beta lactamase at 200 uM.

Each structure is given as a SMILES string.

Beta-lactamase L1, sequence (P52700 whole entry): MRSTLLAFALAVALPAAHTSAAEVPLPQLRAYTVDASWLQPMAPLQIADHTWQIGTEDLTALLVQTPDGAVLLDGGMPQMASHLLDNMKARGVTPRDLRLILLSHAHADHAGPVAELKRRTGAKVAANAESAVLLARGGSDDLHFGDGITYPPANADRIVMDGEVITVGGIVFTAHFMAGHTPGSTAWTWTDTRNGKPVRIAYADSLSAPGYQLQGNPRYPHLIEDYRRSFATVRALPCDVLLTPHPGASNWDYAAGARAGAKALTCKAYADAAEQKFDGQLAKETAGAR
Beta-lactamase L1 (Stenotrophomonas maltophilia), sequence (P52700 34-290 limits assumed): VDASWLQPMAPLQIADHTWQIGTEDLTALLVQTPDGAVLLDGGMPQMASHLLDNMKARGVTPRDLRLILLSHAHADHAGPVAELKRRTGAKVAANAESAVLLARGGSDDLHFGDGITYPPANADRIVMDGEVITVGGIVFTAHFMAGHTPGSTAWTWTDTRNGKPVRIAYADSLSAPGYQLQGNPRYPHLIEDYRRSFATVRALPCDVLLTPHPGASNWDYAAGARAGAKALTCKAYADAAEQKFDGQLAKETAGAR

A word on the Ki: it is the dissociation constant of the complex between target and ligand, obtained from inhibition or displacement. For `CCCCc1ccc(C(=O)NC(CCS)C(=O)N[C@H](Cc2ccccc2)C(=O)O)nc1` (stereo in doubt; 6), the inhibition constant (Ki) on Beta-lactamase L1 amounted to 230 nM. This lies in the sub-micromolar range.
As a reminder, the inhibition is the relative decrease from the control value, in per cent. A high value points to a response far below the control. `O=C(NC(CCS)C(=O)N[C@H](Cc1ccccc1)C(=O)O)c1ccc(-c2ccccc2[N+](=O)[O-])o1` (stereo not given in full) registered an inhibition constant Ki at Beta-lactamase L1 of 160 nM. This molecule gave an inhibition in test [1] of 81%.
With `NC(=O)[C@@H](Cc1ccccc1)NC(=O)C(CCS)NC(=O)c1cc(O)cc(C(=O)O)c1` (stereo in doubt; 95), affinity at Beta-lactamase L1 was put at a Ki of 5.8 nM.
As for `O=C(Cc1ccc(Br)cc1)NC(CCS)C(=O)N[C@H](Cc1ccccc1)C(=O)O` (stereo not given in full), at Beta-lactamase L1, the Ki came out at 350 nM. For the same molecule, the inhibition in test [1] worked out at 81%.
In turn, `O=C(O)c1cc(O)cc(C(=O)NC(CCS)C(=O)N[C@H](Cc2ccccc2)C(=O)O)c1` (stereo in doubt; 49) gave a Ki at Beta-lactamase L1 of 140 nM.
Molecule `CCCCc1ccc(C(=O)NC(CCS)C(=O)N[C@H](Cc2ccccc2)C(=O)O)nc1` (stereo in doubt; 91) displayed an inhibitory constant (Ki) on Beta-lactamase L1 of 230 nM.
In turn, `O=C(NC(CCS)C(=O)N[C@H](Cc1ccccc1)C(=O)O)c1cc2cc(F)ccc2[nH]1` (stereo not given in full) showed an inhibitory constant (Ki) at Beta-lactamase L1 of 12 nM. Besides, the inhibition in test [1] was 81%.
For `NC(=O)[C@@H](Cc1ccccc1)NC(=O)C(CCS)NC(=O)c1cc(O)cc(C(=O)O)c1` (single isomer, unassigned; diastereomer 1), the affinity at Beta-lactamase L1 corresponds to a Ki of 2.1 nM. This counts as single-digit nanomolar.
For `O=C(COc1cccc2ccccc12)NC(CCS)C(=O)N[C@H](Cc1ccccc1)C(=O)O` (stereo not given in full), the inhibitory constant (Ki) at Beta-lactamase L1 stood at 290 nM. For the same molecule, the inhibition in test [1] was determined as 81%.
In the same order, the values of `O=C(Cc1cccc([N+](=O)[O-])c1)NC(CCS)C(=O)N[C@H](Cc1ccccc1)C(=O)O` (stereo not given in full) are 1030 nM and 81%.
In the same order, the values of `Cc1cc(C(=O)NC(CCS)C(=O)N[C@H](Cc2ccccc2)C(=O)O)cc(C)c1OCc1ccccc1` (stereo not given in full) are 200 nM and 81%.
In the case of `O=C(NC(CCS)C(=O)N[C@H](Cc1ccccc1)C(=O)O)c1cc2cccc([N+](=O)[O-])c2[nH]1` (stereo not given in full), on Beta-lactamase L1, the Ki turned out to be 150 nM. The molecule also came in with an inhibition in test [1] of 81%.
Turning to `O=C(O)c1cccc(C(=O)NC(CCS)C(=O)N[C@H](Cc2ccccc2)C(=O)O)n1` (stereo in doubt; 94), the inhibition constant Ki on Beta-lactamase L1 is 120 nM.
Molecule `O=C(NC(CCS)C(=O)N[C@H](Cc1ccccc1)C(=O)O)c1cc2ccccc2[nH]1` (stereo not given in full) registered a Ki at Beta-lactamase L1 of 290 nM. This molecule displayed an inhibition in test [1] of 81%.
Take `NC(=O)[C@@H](Cc1ccccc1)NC(=O)C(CCS)NC(=O)c1cccc(C(=O)O)n1` (stereo not given in full): the Ki on Beta-lactamase L1 is 26 nM.
For `O=C(NC(CCS)C(=O)N[C@H](Cc1ccccc1)C(=O)O)c1cc2cc(Cl)ccc2[nH]1` (stereo not given in full), the Ki at Beta-lactamase L1 turned out to be 200 nM. Besides, the inhibition in test [1] was found to be 81%.
Turning to `O=C(O)c1cccnc1C(=O)NC(CCS)C(=O)N[C@H](Cc1ccccc1)C(=O)O` (stereo not given in full), the inhibition in test [1] was found to be 41%.
`O=C(N[C@H](Cc1ccccc1)C(=O)O)C(CCS)NC(=O)C12CC3CC(CC(C3)C1)C2` (stereo not given in full): the inhibition in test [1] came out at 61%.
With `O=C(Cc1ccc(Br)cc1)NC(CS)C(=O)N[C@H](Cc1ccccc1)C(=O)O` (stereo not given in full), the Ki at Beta-lactamase L1 was 3670 nM.
`O=C(CCc1cccnc1)NC(CCS)C(=O)N[C@H](Cc1ccccc1)C(=O)O` (stereo not given in full) came in with an inhibition in test [1] of 41%.
`C=C(C(=O)NC(CCS)C(=O)N[C@H](Cc1ccccc1)C(=O)O)C(F)(F)F` (stereo not given in full): in test [1], the inhibition came out at 61%.
The same measure, in the same setting: the value for `O=C(NC(CCS)C(=O)N[C@H](Cc1ccccc1)C(=O)O)c1ccoc1` (stereo not given in full) was 41%; that for `Cc1ccc(C(=O)NC(CCS)C(=O)N[C@H](Cc2ccccc2)C(=O)O)c(O)n1` (stereo not given in full) was 61%.
In the case of `O=C(Cc1ccsc1)NC(CCS)C(=O)N[C@H](Cc1ccccc1)C(=O)O` (stereo not given in full), the inhibition in test [1] was found to be 41%.
`O=C(NC(CCS)C(=O)N[C@H](Cc1ccccc1)C(=O)O)c1c[nH]c(=O)c(Cl)c1` (stereo not given in full) gave an inhibition constant Ki at Beta-lactamase L1 of 260 nM.
In the case of `O=C(N[C@H](Cc1ccccc1)C(=O)O)C(CCS)NC(=O)C(c1ccccc1)c1ccccc1` (stereo not given in full), the inhibition in test [1] was 61%.
Same read-out and setting: then `NC(=O)CCC(=O)NC(CCS)C(=O)N[C@H](Cc1ccccc1)C(=O)O` (stereo not given in full), with 41%.
Still for that read-out and setting: then `Cc1ccccc1C(=O)NC(CCS)C(=O)N[C@H](Cc1ccccc1)C(=O)O` (stereo not given in full), with 61%.
Turning to `Cn1cccc1C(=O)NC(CCS)C(=O)N[C@H](Cc1ccccc1)C(=O)O` (stereo not given in full), the inhibition in test [1] turned out to be 41%.
In turn, `O=C(CC12CC3CC(CC(C3)C1)C2)NC(CCS)C(=O)N[C@H](Cc1ccccc1)C(=O)O` (stereo not given in full) registered an inhibition in test [1] of 61%.
`CC(C)CC(=O)NC(CCS)C(=O)N[C@H](Cc1ccccc1)C(=O)O` (stereo not given in full): the inhibition in test [1] amounted to 21%.
Still for that read-out and setting: then `Cc1ccc(C(=O)NC(CCS)C(=O)N[C@H](Cc2ccccc2)C(=O)O)s1` (stereo not given in full), with 41%.
Consider `O=C(O)c1cc(O)cc(C(=O)NC(CCS)C(=O)N[C@H](Cc2ccccc2)C(=O)O)c1` (stereo in doubt; 96), for which, on Beta-lactamase L1, the affinity, expressed as Ki, was 140 nM.
Molecule `O=C(Cc1ccccc1)NC(CCS)C(=O)N[C@H](Cc1ccccc1)C(=O)O` (stereo not given in full) gave an inhibition in test [1] of 61%.
Still for that read-out and setting: then `O=C(CC(c1ccccc1)c1ccccc1)NC(CCS)C(=O)N[C@H](Cc1ccccc1)C(=O)O` (stereo not given in full), with 41%; and `O=C(NC(CCS)C(=O)N[C@H](Cc1ccccc1)C(=O)O)C1CCCCC1` (stereo not given in full), with 61%; and `O=C(NC(CCS)C(=O)N[C@H](Cc1ccccc1)C(=O)O)c1cccc(O)c1` (stereo not given in full), with 41%.
`O=C(Cc1cccs1)NC(CCS)C(=O)N[C@H](Cc1ccccc1)C(=O)O` (stereo not given in full) registered an inhibition in test [1] of 41%.
The molecule `O=C(NC(CCS)C(=O)N[C@H](Cc1ccccc1)C(=O)O)c1ccccc1C(=O)c1ccccc1` (stereo not given in full) registered an inhibition in test [1] of 41%.
`C[Si](C)(C)CCC(=O)NC(CCS)C(=O)N[C@H](Cc1ccccc1)C(=O)O` (stereo not given in full): affinity at Beta-lactamase L1 was put at a Ki of 520 nM. This molecule also came in with an inhibition in test [1] of 81%.
In test [1], `CO/N=C(/C(=O)NC(CCS)C(=O)N[C@H](Cc1ccccc1)C(=O)O)c1csc(NC=O)n1` (stereo not given in full) came in with an inhibition of 41%.
Regarding `NC(=O)[C@@H](Cc1ccccc1)NC(=O)C(CCS)NC(=O)c1cc(O)cc(C(=O)O)c1` (single isomer, unassigned), on Beta-lactamase L1, the affinity, expressed as Ki, was 130 nM.
Take `O=C(NC(CCS)C(=O)N[C@H](Cc1ccccc1)C(=O)O)c1ccsc1` (stereo not given in full): in test [1], the inhibition was 41%.
`O=C(NC(CCS)C(=O)N[C@H](Cc1ccccc1)C(=O)O)c1ccccc1O` (stereo not given in full) had an inhibition in test [1] of 41%.
The same measure, in the same setting: the value for `O=C(NC(CCS)C(=O)N[C@H](Cc1ccccc1)C(=O)O)c1ccco1` (stereo not given in full) was 41%; that for `CC(=O)Oc1ccccc1C(=O)NC(CCS)C(=O)N[C@H](Cc1ccccc1)C(=O)O` (stereo not given in full) was 41%; that for `O=C(/C=C\c1c[nH]c2ccccc12)NC(CCS)C(=O)N[C@H](Cc1ccccc1)C(=O)O` (stereo not given in full) was 21%.
The molecule `O=C(O)CCCCC(=O)NC(CCS)C(=O)N[C@H](Cc1ccccc1)C(=O)O` (stereo not given in full) returned an inhibition in test [1] of 41%.
At Beta-lactamase L1, `CC(=O)Nc1ccc(CC(=O)NC(CCS)C(=O)N[C@H](Cc2ccccc2)C(=O)O)cc1[N+](=O)[O-]` (stereo not given in full) displayed an inhibition constant (Ki) of 390 nM. The inhibition in test [1] stood at 81%.
Molecule `O=C(O)c1cccc(C(=O)NC(CCS)C(=O)N[C@H](Cc2ccccc2)C(=O)O)n1` (stereo in doubt; 84) yielded a Ki on Beta-lactamase L1 of 12 nM.
As to `C=CCCC(=O)NC(CCS)C(=O)N[C@H](Cc1ccccc1)C(=O)O` (stereo not given in full), in test [1], the inhibition stood at 41%.
With `O=C(Cc1cccc2ccccc12)NC(CCS)C(=O)N[C@H](Cc1ccccc1)C(=O)O` (stereo not given in full), the inhibition in test [1] amounted to 61%.
As for `CCCCc1ccc(C(=O)NC(CS)C(=O)N[C@H](Cc2ccccc2)C(=O)O)nc1` (stereo not given in full), the affinity at Beta-lactamase L1, expressed as Ki, was 880 nM. That is a sub-micromolar value.
Molecule `O=C(Cc1cc([N+](=O)[O-])ccc1Cl)NC(CCS)C(=O)N[C@H](Cc1ccccc1)C(=O)O` (stereo not given in full) showed an inhibition constant (Ki) at Beta-lactamase L1 of 780 nM. In addition, the inhibition in test [1] came out at 81%.
The molecule `C/C=C\C=C\C(=O)NC(CCS)C(=O)N[C@H](Cc1ccccc1)C(=O)O` (stereo not given in full) had an inhibition in test [1] of 41%.
The same measure, in the same setting: then `C=Cc1ccc(C(=O)NC(CCS)C(=O)N[C@H](Cc2ccccc2)C(=O)O)cc1` (stereo not given in full), with 61%; and `O=C(NC(CCS)C(=O)N[C@H](Cc1ccccc1)C(=O)O)c1cccs1` (stereo not given in full), with 41%.
On Beta-lactamase L1, `O=C(NC(CCS)C(=O)N[C@H](Cc1ccccc1)C(=O)O)c1cc2cc(O)ccc2[nH]1` (stereo not given in full) gave a Ki of 570 nM. This molecule also gave an inhibition in test [1] of 81%.
Molecule `CCCC(=O)NC(CCS)C(=O)N[C@H](Cc1ccccc1)C(=O)O` (stereo not given in full) yielded an inhibition in test [1] of 41%.
The molecule `O=C(NC(CCS)C(=O)N[C@H](Cc1ccccc1)C(=O)O)c1ccno1` (stereo not given in full) came in with an inhibition in test [1] of 61%.
For the molecule `Cc1cc(C(=O)NC(CCS)C(=O)N[C@H](Cc2ccccc2)C(=O)O)cc(C)c1O` (stereo not given in full), the Ki at Beta-lactamase L1 was found to be 540 nM. Moreover, the inhibition in test [1] turned out to be 81%.
Consider `O=C(NC(CCS)C(=O)N[C@H](Cc1ccccc1)C(=O)O)c1ccccc1[N+](=O)[O-]` (stereo not given in full), for which the inhibition in test [1] came out at 61%.
The same measure, in the same setting: then `O=C(NC(CCS)C(=O)N[C@H](Cc1ccccc1)C(=O)O)c1cnccn1` (stereo not given in full), with 61%.
On Beta-lactamase L1, `O=C(CCC1CCCCC1)NC(CCS)C(=O)N[C@H](Cc1ccccc1)C(=O)O` (stereo not given in full) showed an inhibition constant Ki of 780 nM. This molecule had an inhibition in test [1] of 81%.
The molecule `Cc1ccc(C(=O)NC(CCS)C(=O)N[C@H](Cc2ccccc2)C(=O)O)c(Cl)n1` (stereo not given in full) showed an inhibition in test [1] of 61%.
